From patent US9833463B2, “Sitagliptin tannate complex” (MERCK SHARP & DOHME CORP., priority 2014, dated 2017)

Assay type: physicochemical
Description: The dissolution profile of the sitagliptin tannate complexes of Example 1 and 2 using simulated saliva fluid (SSF) and simulated gastric fluid (SGF) by using the following two stage dissolution protocol:
Stage 1: A sample of sitagliptin tannate complex of Example 1 or 2 was placed in 10 mL of SSF, which was prepared by dissolving 8.0 g of NaCl, 0.19 g of potassium phosphate monobasic, and 2.38 g of sodium phosphate dibasic in 1 L of water, and adjusting to pH 6.8 with phosphoric acid, heated to 37° C., for 1 minute and an aliquot was removed.
Stage 2: The remaining solution transferred to 500 mL of SGF, which was prepared by dissolving 2.0 g of NaCl in 1 L of water, and adding 1.4 mL of concentrated hydrochloric acid. The SGF was stirred at 37° C. with apparatus 2 (paddles), and aliquots were collected at 6 time-points.
The aliquots were then analyzed by HPLC to determine the amount of free sitagliptin.

Row | solubility of the complex at neutral pH | release in acidic pH (acidic pH, such as that found in the stomach) | release rate at neutral pH (neutral pH, such as that found in the mouth) | Substance | sitagliptin release from the complex in SGF (stage 2) (simulated gastric fluid (low pH), 37° C., apparatus 2 (paddles), 6 time-points, FIG. 1 / FIG. 2) | sitagliptin released from the complex in SSF (stage 1) (simulated saliva fluid pH 6.8, 37° C., 1 minute, FIG. 1 / FIG. 2)
1 | not soluble or almost not soluble | immediate release | negligible release rate | sitagliptin tannate complex |  | 
2 |  |  |  | sitagliptin tannate complex [Example 2] | rapidly released | very little to no sitagliptin was released
